From paper PMC9453066, “Targeted control of pneumolysin production by a mobile genetic element in Streptococcus pneumoniae” (Microbial Genomics, 2022)

Test system: ZomB
Conditions: saturating ssDNA (poly(dT)); 1 mM MgCl2, 50 mM NaCl, 2 mM DTT, 20 mM Tris-Cl pH 8.0, 25 °C; 50 nM ZomB

Work on `Nc1ncnc2c1ncn2[C@@H]1O[C@H](COP(=O)(O)OP(=O)(O)OP(=O)(O)O)[C@@H](O)[C@H]1O` [ATP] yielded a Km of 90 µM.
